From article PMC7667569, “Chemical Composition and Biological Activities of Endophytic Fungus Talaromyces Wortmannii LGT-4, Cultured in CYM Medium” (Iranian Journal of Pharmaceutical Research : IJPR, 2020)
Converted amounts (≈) assume the structure as drawn.

System: T1, monoamine oxidase (MAO)
T1 construct: gene MAOA
Assay: MAO inhibition assay (procedure by reference)
Conditions: isoenzyme and enzyme source not told

IC50 | SMILES
35 µg/mL (≈ 233 µM) | O=C1OCc2c(O)cccc21 [compound 1, 4-hydroxyphthalide]
28 µg/mL (≈ 166 µM) | C[C@@H]1NC(=O)[C@@H]2CCCN2C1=O [compound 5, Cis-cyclo(L-Ala-L-Pro)]
